# Data from patent publication US7816409B2, “Stable pharmaceutical composition of fluoroether compound for anesthetic use method for stabilizing a fluoroether compound, use of stabilizer agent for precluding the degradation of a fluoroether compound” (Cristalia Productos Quimicos Farmaceuticos LTDA, priority 2003, dated 2010).
# Experiments:
# [1] = Chromatographic purity and impurities of sevoflurane after stress with alumina (Pharmacopeial Forum USP specifications); format: physicochemical; conditions: for degradation of sevoflurane by alumina: Example 5, 260 ppm stabilizer
# Experimental: (§1) In this study alumina was employed in a final concentration of 1 mg per mL of sevoflurane.
# (§2) Alumina was employed in a final concentration of 1 mg per mL of sevoflurane.
# [2] = Limit of fluoride in sevoflurane after stress with alumina; format: physicochemical
# Experimental: as §1
# Another important factor observed in the present study is the quantity of fluoride in the sample submitted to stress.
# as §2
# [3] = Stress degradation of sevoflurane with or without alumina, gas chromatography with toluene internal standard; format: physicochemical
# Experimental: In the following examples, all analyses by gas chromatography were carried out by adding 2 μL of toluene (internal standard) in 10 mL of sample of sevoflurane in study. The analysis was done in duplicates and for each chromatogram obtained was calculated the ratio of the area of each impurity/area of toluene.
# In two type III glass bottle with capacity of 100 mL, was added 20 mL of anhydrous sevoflurane and in one of the bottles was added 20 mg of alumina totalizing 1.0 mg of Al2O3 per mL of sevoflurane. Both bottles were closed with a stopper and screw metallic cap and heated in a stove at 60° C. for 22 hours. After that period, the samples were analyzed in duplicates by gas chromatography using the internal standard addition method (toluene). […] The degradation products of sevoflurane monitored by gas chromatography, HFIP, Acetal, 2, 5, 7 and 8, are present in high amounts in the samples of sevoflurane containing alumina after heating, as presented in FIG. 4.
# The samples were prepared and placed in type III glass bottle and the bottles were closed with stopper and screw metallic cap.
# The samples were submitted to two stress conditions by heating in stove at 60° C. for a cycle of 22 hours and other of 72 hours.
# The sample was prepared to contain 0, 50, 200, 600, 1000 and 1400 ppm of the stabilizer agent. […] The study comprises put sevoflurane in contact with an acid substance, submits the samples to a stress by heating at 60° C. for 22 hours and, by comparison evaluates the chromatographic purity of sevoflurane after stress. The activated alumina was employed as acid substance in a constant quantity of 1 mg per mL of sevoflurane.
# In type III glass bottle with capacity for 100 mL was transferred 20 mL of test sevoflurane containing determined quantities of the stabilizer agent (0, 50, 200, 600, 1000 and 1400 ppm) and 20 mg of alumina. The bottles were immediately closed with a stopper and a screw metallic cap. These bottles were heated in a stove at 60° C. for 22 hours. After the stress the samples were analyzed in duplicate by gas chromatography using the internal standard addition method (toluene). In parallel, studies were done with the quantity determined of the stabilizer (0, 50, 200, 600, 1000 and 1400 ppm) without alumina.
# Table 2 resumes the tests realized with the agents propylene glycol and menthol proposed for the stabilization of sevoflurane against the degradation by alumina and the results for total impurity and for the single impurity HFIP obtained with and without alumina after stress at 60° C. for 22 hours. The total impurity is the sum of the ratio between the area for each impurity and the area of the internal standard (toluene) and HFIP is the ratio between the area of HFIP and the area of toluene obtained in the chromatograms.
# [4] = Saturation level / solubility of stabilizer in sevoflurane
# From the text: The stabilizer agent for the fluoroether compound, and most particularly for the sevoflurane, is employed in concentration ranging from 0.001% in weight in relation to the weight of sevoflurane until its level of saturation in the sevoflurane, that is, the maximum concentration in which it keeps soluble in the sevoflurane. The amount of stabilizer agent to achieve its saturation depends on the stabilizer and temperature, and can be high due to the solubility profile among these substances.
# Among the appropriate polyalcohols to the stabilization of the fluoroether compound sevoflurane, propylene glycol, polyethylene glycol, hexylene glycol and 1,3-butileneglycol are chosen. […] As cited before, the amount of the stabilizer agent will range from 0.001% in weight until its saturation level in sevoflurane. […] Therefore, in a general way, the polyalcohols are preferably employed in amounts ranging from 0.001% to 5.0% in weight in relation to the weight of sevoflurane.
# [5] = Table 4, initial analysis of anhydrous sevoflurane before stress
# [6] = Table 6, initial analysis of anhydrous sevoflurane before stress
# [7] = anhydrous sevoflurane, stabilizer 0 ppm, 60° C. for 22 hours, 0 mg of Al2O3
# [8] = anhydrous sevoflurane, stabilizer 0 ppm, 60° C. for 22 hours, 20 mg of Al2O3
# [9] = anhydrous sevoflurane, stabilizer 50 ppm, 60° C. for 22 hours, 0 mg of Al2O3
# [10] = anhydrous sevoflurane, stabilizer 50 ppm, 60° C. for 22 hours, 20 mg of Al2O3
# [11] = anhydrous sevoflurane, stabilizer 200 ppm, 60° C. for 22 hours, 0 mg of Al2O3
# [12] = anhydrous sevoflurane, stabilizer 200 ppm, 60° C. for 22 hours, 20 mg of Al2O3
# [13] = anhydrous sevoflurane, stabilizer 600 ppm, 60° C. for 22 hours, 0 mg of Al2O3
# [14] = anhydrous sevoflurane, stabilizer 600 ppm, 60° C. for 22 hours, 20 mg of Al2O3
# [15] = anhydrous sevoflurane, stabilizer 1000 ppm, 60° C. for 22 hours, 0 mg of Al2O3
# [16] = anhydrous sevoflurane, stabilizer 1000 ppm, 60° C. for 22 hours, 20 mg of Al2O3
# [17] = anhydrous sevoflurane, stabilizer 1400 ppm, 60° C. for 22 hours, 0 mg of Al2O3
# [18] = anhydrous sevoflurane, stabilizer 1400 ppm, 60° C. for 22 hours, 20 mg of Al2O3
# [19] = alumina 1 mg per mL, 60° C. for 22 hours
# [20] = Table 4, sevoflurane with 260 ppm stabilizer, alumina 1 mg per mL, 60° C. for 22 hours
# [21] = sevoflurane, stabilizer 50 ppm, stress at 60° C. for 12 hours, 0 mg of Al2O3
# [22] = sevoflurane, stabilizer 50 ppm, stress at 60° C. for 12 hours, 20 mg of Al2O3
# [23] = Table 5, sevoflurane with 260 ppm stabilizer, alumina 1 mg per mL, 60° C. for 22 hours
# [24] = Table 6, sevoflurane with water 260 ppm or PG + water 260:260 ppm, alumina 1 mg per mL, 60° C. for 22 hours
compound,measurement,setting,value
"FCOC(C(F)(F)F)C(F)(F)F [Anhydrous Sevoflurane, fluoromethyl 2,2,2-trifluoro-1-(trifluoromethyl)ethyl ether]",Compound A,[1]; [5],11.2 µg/g
same,Purity,[1]; [5],99.9798%
same,Single impurity,[1]; [5],63.7 µg/g
same,Total Impurity,[1]; [5],201.8 µg/g
same,Purity,[1]; [6],99.9907%
same,Single impurity,[1]; [6],42.1 µg/g
same,Total impurities,[1]; [6],93.0 µg/g
same,Limit of fluoride,"[2]; Table 5, initial analysis of anhydrous sevoflurane before stress",0.050 µg/mL
same,Limit of fluoride,[2]; [6],0.072 µg/mL
"CC1CCC(C(C)C)C(O)C1 (stereo not drawn) [MENTHOL, (1 alpha, 2 beta, 5 alpha)-5-methyl-2-(1-methylethyl)cyclohexanol]",HFIP (average ratio area of HFIP/area of toluene),[3]; [7],0.0408
same,Total Impurity (average sum of ratios area of each impurity/area of toluene),[3]; [7],0.3083
same,HFIP (average ratio area of HFIP/area of toluene),[3]; [8],0.8914
same,Total Impurity (average sum of ratios area of each impurity/area of toluene),[3]; [8],37.5478
same,HFIP (average ratio area of HFIP/area of toluene),[3]; [9],0.04541
same,Total Impurity (average sum of ratios area of each impurity/area of toluene),[3]; [9],0.3174
same,HFIP (average ratio area of HFIP/area of toluene),[3]; [10],0.6402
same,Total Impurity (average sum of ratios area of each impurity/area of toluene),[3]; [10],1.0412
same,HFIP (average ratio area of HFIP/area of toluene),[3]; [11],0.04228
same,Total Impurity (average sum of ratios area of each impurity/area of toluene),[3]; [11],0.2918
same,HFIP (average ratio area of HFIP/area of toluene),[3]; [12],0.5880
same,Total Impurity (average sum of ratios area of each impurity/area of toluene),[3]; [12],1.0773
same,HFIP (average ratio area of HFIP/area of toluene),[3]; [13],0.04445
same,Total Impurity (average sum of ratios area of each impurity/area of toluene),[3]; [13],0.3319
same,HFIP (average ratio area of HFIP/area of toluene),[3]; [14],0.4426
same,Total Impurity (average sum of ratios area of each impurity/area of toluene),[3]; [14],1.0001
same,HFIP (average ratio area of HFIP/area of toluene),[3]; [15],0.04669
same,Total Impurity (average sum of ratios area of each impurity/area of toluene),[3]; [15],0.3627
same,HFIP (average ratio area of HFIP/area of toluene),[3]; [16],0.3787
same,Total Impurity (average sum of ratios area of each impurity/area of toluene),[3]; [16],0.9486
same,HFIP (average ratio area of HFIP/area of toluene),[3]; [17],0.04325
same,Total Impurity (average sum of ratios area of each impurity/area of toluene),[3]; [17],0.3644
same,HFIP (average ratio area of HFIP/area of toluene),[3]; [18],0.3329
same,Total Impurity (average sum of ratios area of each impurity/area of toluene),[3]; [18],1.0156
same,saturation level in sevoflurane,[4],about 6.8%
"CC(O)CO (centres unmarked) [Propylene glycol, 1,2-propanediol]",degradation of sevoflurane by alumina,[1]; [19],didn't show any degradation
same,Compound A,[1]; [20],11.3 µg/g
same,Purity,[1]; [20],99.9774%
same,Single impurity,[1]; [20],61.7 µg/g
same,Total Impurity,[1]; [20],226.3 µg/g
same,HFIP (average ratio area of HFIP/area of toluene),[3]; [7],0.0491
same,Total Impurity (average sum of ratios area of each impurity/area of toluene),[3]; [7],0.3304
same,HFIP (average ratio area of HFIP/area of toluene),[3]; [8],0.6680
same,Total Impurity (average sum of ratios area of each impurity/area of toluene),[3]; [8],31.65
same,HFIP (average ratio area of HFIP/area of toluene),[3]; [9],0
same,Total Impurity (average sum of ratios area of each impurity/area of toluene),[3]; [9],0.3293
same,HFIP (average ratio area of HFIP/area of toluene),[3]; [10],0.05996
same,Total Impurity (average sum of ratios area of each impurity/area of toluene),[3]; [10],0.3925
same,HFIP (average ratio area of HFIP/area of toluene),[3]; [11],0.04474
same,Total Impurity (average sum of ratios area of each impurity/area of toluene),[3]; [11],0.3546
same,HFIP (average ratio area of HFIP/area of toluene),[3]; [12],0.04072
same,Total Impurity (average sum of ratios area of each impurity/area of toluene),[3]; [12],0.2823
same,HFIP (average ratio area of HFIP/area of toluene),[3]; [13],0.04694
same,Total Impurity (average sum of ratios area of each impurity/area of toluene),[3]; [13],0.2925
same,HFIP (average ratio area of HFIP/area of toluene),[3]; [14],0.04603
same,Total Impurity (average sum of ratios area of each impurity/area of toluene),[3]; [14],0.3158
same,HFIP (average ratio area of HFIP/area of toluene),[3]; [15],0.04038
same,Total Impurity (average sum of ratios area of each impurity/area of toluene),[3]; [15],0.3800
same,HFIP (average ratio area of HFIP/area of toluene),[3]; [16],0.04353
same,Total Impurity (average sum of ratios area of each impurity/area of toluene),[3]; [16],0.3189
same,HFIP (average ratio area of HFIP/area of toluene),[3]; [17],0.04159
same,Total Impurity (average sum of ratios area of each impurity/area of toluene),[3]; [17],0.3061
same,HFIP (average ratio area of HFIP/area of toluene),[3]; [18],0.04236
same,Total Impurity (average sum of ratios area of each impurity/area of toluene),[3]; [18],0.3235
same,HFIP (average ratio area of HFIP/area of toluene),[3]; [21],0.00338
same,Total Impurity (average sum of ratios area of each impurity/area of toluene),[3]; [21],0.3236
same,HFIP (average ratio area of HFIP/area of toluene),[3]; [22],0.02051
same,Total Impurity (average sum of ratios area of each impurity/area of toluene),[3]; [22],0.3963
same,saturation level in sevoflurane,[4],around 2.5%
same,Limit of fluoride,[2]; [23],0.051 µg/mL
O [Water],degradation of sevoflurane by alumina,[1]; [19],didn't inhibit the degradation
same,Compound A,[1]; [20],11.8 µg/g
same,Purity,[1]; [20],99.8944%
same,Single impurity,[1]; [20],403 µg/g
same,Total Impurity,[1]; [20],1056.1 µg/g
same,Purity,[1]; [24],99.8899%
same,Single impurity,[1]; [24],422.8 µg/g
same,Total impurities,[1]; [24],1101.3 µg/g
same,water content from which degradation of sevoflurane by alumina is inhibited,"[3]; Example 2, alumina 1 mg per mL, 60° C.",≥ 600 ppm
same,degradation of sevoflurane by alumina,"[3]; Example 4, 50 ppm stabilizer, alumina 1 mg per mL",incapable to completely inhibit
same,increase of impurity HFIP value in relation to the sample without alumina,"[3]; sevoflurane containing water, with alumina",about 10 times
same,Limit of fluoride,[2]; [23],16.950 µg/mL
same,Limit of fluoride,[2]; [24],15.340 µg/mL
PEG 400,solubility in sevoflurane,[4],freely soluble
